Measured values from patent US20240075093A1, “COMPOSITIONS AND METHODS OF TREATING A PI3K MEDIATED DISEASE” (VIRGINIA TECH INTELLECTUAL PROPERTIES, INC., priority 2020, published 2024).

Assays:
[1] = target: p110δ (Homo sapiens, UniProt O00329); test: PI3K subunit activity ELISA; type: biochemical; conditions: 100 nM
Description: (§1) Relative activity is the ratio of respective treated groups to their non-treated controls.
(§2) Applicant also included a control scramble peptide containing the antennapedia sequence followed by the amino acid sequence of Ante-Selectide-18 randomly scrambled. […] Applicant reports that this drug is not effective at inhibiting the kinase activity of p110b or other PI3K subunits at 100 nM, showing the promise of the Ante-Selectide-18 peptide as a potent selective p110b inhibitor at a low dose.

[2] = target: p110c (Homo sapiens, UniProt P42336); test: PI3K subunit activity ELISA; type: biochemical; conditions: 100 nM
Chain of p110c (P42336 whole entry): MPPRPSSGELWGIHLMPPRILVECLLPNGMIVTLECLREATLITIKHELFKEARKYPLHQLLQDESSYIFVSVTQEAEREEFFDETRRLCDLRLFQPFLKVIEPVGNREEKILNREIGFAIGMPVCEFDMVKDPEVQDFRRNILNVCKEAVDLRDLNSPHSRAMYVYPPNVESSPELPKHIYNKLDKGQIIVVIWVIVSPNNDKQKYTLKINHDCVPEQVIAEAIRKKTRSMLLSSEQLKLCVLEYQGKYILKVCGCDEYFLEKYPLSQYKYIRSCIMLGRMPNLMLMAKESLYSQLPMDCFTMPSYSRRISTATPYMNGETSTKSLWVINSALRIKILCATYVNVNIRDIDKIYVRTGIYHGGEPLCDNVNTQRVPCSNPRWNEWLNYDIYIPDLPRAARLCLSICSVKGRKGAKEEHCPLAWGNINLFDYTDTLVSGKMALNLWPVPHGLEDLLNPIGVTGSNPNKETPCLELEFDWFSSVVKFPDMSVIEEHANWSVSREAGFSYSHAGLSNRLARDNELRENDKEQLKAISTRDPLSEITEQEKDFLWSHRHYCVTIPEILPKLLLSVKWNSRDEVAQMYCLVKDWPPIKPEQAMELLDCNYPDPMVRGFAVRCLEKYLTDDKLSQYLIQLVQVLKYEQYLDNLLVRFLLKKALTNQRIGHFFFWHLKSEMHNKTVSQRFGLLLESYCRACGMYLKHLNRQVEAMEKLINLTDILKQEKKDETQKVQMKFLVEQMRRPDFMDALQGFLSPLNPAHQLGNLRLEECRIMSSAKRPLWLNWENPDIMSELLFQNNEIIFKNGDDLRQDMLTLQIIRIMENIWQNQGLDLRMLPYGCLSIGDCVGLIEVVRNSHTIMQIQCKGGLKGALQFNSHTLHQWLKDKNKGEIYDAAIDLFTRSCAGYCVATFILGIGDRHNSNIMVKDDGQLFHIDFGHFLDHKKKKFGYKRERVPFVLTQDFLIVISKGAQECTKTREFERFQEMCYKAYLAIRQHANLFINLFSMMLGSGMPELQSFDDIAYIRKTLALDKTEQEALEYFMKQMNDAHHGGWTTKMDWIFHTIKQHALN
Description: as §1, §2

[3] = target: p110γ (Homo sapiens, UniProt P48736); test: PI3K subunit activity ELISA; type: biochemical; conditions: 100 nM
Chain of p110γ (P48736 whole entry): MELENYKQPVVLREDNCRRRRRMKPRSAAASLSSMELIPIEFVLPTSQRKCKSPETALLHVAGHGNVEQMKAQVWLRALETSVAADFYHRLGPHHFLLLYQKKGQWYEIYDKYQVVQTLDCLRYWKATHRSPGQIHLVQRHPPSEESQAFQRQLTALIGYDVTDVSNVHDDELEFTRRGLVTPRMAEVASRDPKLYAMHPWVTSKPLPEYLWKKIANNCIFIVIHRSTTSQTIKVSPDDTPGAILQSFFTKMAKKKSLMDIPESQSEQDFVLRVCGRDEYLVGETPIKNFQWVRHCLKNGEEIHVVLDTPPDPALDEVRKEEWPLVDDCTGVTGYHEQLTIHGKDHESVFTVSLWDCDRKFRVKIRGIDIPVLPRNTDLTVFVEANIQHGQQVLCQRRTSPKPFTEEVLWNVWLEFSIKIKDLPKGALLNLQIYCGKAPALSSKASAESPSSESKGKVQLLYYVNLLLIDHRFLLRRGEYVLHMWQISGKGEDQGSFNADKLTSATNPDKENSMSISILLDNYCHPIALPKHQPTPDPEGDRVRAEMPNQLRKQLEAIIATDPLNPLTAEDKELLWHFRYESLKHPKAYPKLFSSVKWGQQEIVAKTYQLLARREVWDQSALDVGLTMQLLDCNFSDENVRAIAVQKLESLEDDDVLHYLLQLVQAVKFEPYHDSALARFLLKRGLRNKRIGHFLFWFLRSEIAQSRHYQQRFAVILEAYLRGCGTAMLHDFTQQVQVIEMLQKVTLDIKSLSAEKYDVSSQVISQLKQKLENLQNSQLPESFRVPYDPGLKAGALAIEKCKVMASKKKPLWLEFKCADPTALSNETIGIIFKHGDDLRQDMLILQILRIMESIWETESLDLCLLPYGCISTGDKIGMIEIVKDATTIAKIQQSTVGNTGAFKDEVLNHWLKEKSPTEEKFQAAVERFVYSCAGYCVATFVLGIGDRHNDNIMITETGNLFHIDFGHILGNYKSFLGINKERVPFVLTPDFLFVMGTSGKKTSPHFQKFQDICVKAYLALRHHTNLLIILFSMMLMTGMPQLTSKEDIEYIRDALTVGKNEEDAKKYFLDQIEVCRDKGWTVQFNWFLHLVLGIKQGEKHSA
Description: as §1, §2

[4] = test system: SF295 cells; test: MTS cell viability assay; type: cell-based; conditions: 20 uM TGX-221 and 50 uM TMZ, 4 days
Description: (FIG. 12A) p110βC2in. CPP: cell-penetrating peptide. Simulated p110βC2in (rainbow as represented in greyscale) is shown. (FIG. 12B) FITC-p110βC2in in LN229/GSCs was imaged using a fluorescence microscope. Upper: FITC; lower: bright view. (FIG. 12C) PI3K/AKT activity affected by 100 μM p110βC2in (+) or C2Scramble-1 (−). (FIG. 12D) MTS Cell viability assay. Cells were treated with 50 μM peptides for 4 days. Student t test was used to determine P values.
Cell viability was measured by the MTS assay. P values were determined using the student t test or one-way ANOVA. Error bars represent three independent experiments.
This scheme has been repeated in experiments presented hereafter. Cell viability was determined using the MTS viability assay. Percentages of cell viability were obtained by normalizing the MTS readings of treatment groups to that of DMSO group. (FIG. 34B) Scores of Excess Over Bliss (EOB) calculated using the Bliss Independence model. The drug combination is synergistic if EOB is more than 0%, additive if EOB equals to 0%, or antagonistic if EOB is less than 0%. […] (FIG. 34D) EOB scores of drug combinations in LN229 and VTC-001 cells. (FIG. 34E) Caspase 3/7 activity in VTC-103 and VTC-001 cells. The activity of cleaved caspase 3/7 (active) was determined using a luminescence assay. Shown are luminescence readings. (FIG. 34F) EOB scores of drug combinations in VTC-103 and VTC-001 cells. […] SF295 cells were subcutaneously injected into immuno-deficient mice. […] Tumor volumes are shown. […] Cell viability was determined using the MTS viability assay. Percentages of cell viability were obtained by normalizing the MTS readings of treatment groups to that of shNS group. […]
Cell viability was determined by the MTS cell viability assay (Promega) as described previously 21,24-27. […] At each hour time point, the absorbance at 490 nm was measured using a FilterMax F3 microplate reader (Molecular Devices, LLC) according to the manufacturer's instructions. Percent cell viability was obtained by dividing the absorbance of treatment groups to those of untreated and respective vehicle control groups.

Chain of p110δ (O00329 whole entry): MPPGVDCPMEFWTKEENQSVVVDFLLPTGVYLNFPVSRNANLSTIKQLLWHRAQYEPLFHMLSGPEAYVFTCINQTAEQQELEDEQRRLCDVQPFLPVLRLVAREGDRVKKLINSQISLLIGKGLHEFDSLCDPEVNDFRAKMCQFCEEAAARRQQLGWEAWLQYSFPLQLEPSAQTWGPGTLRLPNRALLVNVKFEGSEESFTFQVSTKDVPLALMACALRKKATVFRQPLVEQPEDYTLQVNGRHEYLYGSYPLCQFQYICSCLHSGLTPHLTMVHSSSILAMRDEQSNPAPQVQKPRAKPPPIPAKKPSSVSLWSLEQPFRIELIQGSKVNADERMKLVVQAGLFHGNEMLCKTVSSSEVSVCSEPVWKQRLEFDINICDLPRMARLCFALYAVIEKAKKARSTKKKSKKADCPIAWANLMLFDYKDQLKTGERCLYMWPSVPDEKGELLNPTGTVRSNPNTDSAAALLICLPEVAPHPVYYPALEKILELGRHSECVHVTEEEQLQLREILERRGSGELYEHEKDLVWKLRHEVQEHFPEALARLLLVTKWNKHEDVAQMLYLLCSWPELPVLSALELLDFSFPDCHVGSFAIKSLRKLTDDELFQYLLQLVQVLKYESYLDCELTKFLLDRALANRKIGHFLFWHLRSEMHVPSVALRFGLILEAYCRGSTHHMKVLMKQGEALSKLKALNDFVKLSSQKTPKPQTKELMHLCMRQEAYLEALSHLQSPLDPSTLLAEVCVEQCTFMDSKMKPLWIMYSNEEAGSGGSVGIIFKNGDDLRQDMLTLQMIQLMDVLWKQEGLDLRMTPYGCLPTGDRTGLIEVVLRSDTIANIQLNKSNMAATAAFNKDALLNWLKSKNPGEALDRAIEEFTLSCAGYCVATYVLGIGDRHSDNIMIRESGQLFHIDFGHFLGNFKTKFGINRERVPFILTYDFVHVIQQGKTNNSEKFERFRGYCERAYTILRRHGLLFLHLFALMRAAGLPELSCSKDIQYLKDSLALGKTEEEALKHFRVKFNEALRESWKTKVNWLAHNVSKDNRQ
Chain of p110δ (P27986 whole entry partner): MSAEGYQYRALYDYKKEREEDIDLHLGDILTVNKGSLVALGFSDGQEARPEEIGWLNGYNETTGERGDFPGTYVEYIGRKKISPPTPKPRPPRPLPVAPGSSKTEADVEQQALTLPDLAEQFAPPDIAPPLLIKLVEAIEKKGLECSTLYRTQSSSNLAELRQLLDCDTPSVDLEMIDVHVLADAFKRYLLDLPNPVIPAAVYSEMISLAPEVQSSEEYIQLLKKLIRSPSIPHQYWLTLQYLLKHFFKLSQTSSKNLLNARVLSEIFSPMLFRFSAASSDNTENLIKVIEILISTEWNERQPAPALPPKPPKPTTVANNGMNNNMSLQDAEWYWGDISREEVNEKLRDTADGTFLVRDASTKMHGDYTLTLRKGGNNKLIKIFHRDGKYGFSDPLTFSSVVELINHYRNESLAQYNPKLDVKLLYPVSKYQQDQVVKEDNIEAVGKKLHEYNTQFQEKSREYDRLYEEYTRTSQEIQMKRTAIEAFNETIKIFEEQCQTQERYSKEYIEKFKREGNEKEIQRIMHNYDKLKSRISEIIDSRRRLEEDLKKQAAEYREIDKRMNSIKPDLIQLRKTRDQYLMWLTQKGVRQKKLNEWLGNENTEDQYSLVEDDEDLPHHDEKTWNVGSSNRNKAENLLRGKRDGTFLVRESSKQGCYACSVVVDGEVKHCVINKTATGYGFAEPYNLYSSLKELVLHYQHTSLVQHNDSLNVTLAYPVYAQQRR

Cc1cc(C(C)Nc2ccccc2)c2nc(N3CCOCC3)cc(=O)n2c1 (stereo not shown) [TGX-221]
activity of PI3K subunit p110δ [1]: not effective
activity of PI3K subunit p110c [2]: not effective
activity of PI3K subunit p110γ [3]: not effective
TMZ sensitivity [4]: increased TMZ sensitivity
